This passage reports DC50 and Dmax results from patent US20250206732A1, “COMPOUNDS AND METHODS FOR THE TARGETED DEGRADATION OF KRAS” (Arvinas Operations, Inc., priority 2022, published 2025).

One assay has as its target T1, SW1573 HiBiT-KRASG12C (Homo sapiens, UniProt P01116, G12C).
T1 construct: expressed in transfected cells
Put plainly: HiBiT degradation assay (G12C), SW1573 HiBiT-KRASG12C cells.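 For DC50: Letter grades: C is 1000 to 3000 nM and D is above 3000 nM.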 It counts as cell-based. The note with it: 24 hours treatment; for DC50: HiBiT luminescence; for Dmax: maximum degradation observed. How it is done:
Reagents. SW1573 (CRL-2170), AsPC-1 (CRL-1682), and SW620 (CCL-227) cells were purchased from ATCC. SW1573 cells are homozygous for the G12C mutation in KRAS, AsPC-1 cells are homozygous for the G12D mutation, and SW620 cells are homozygous for the G12V mutation. SW1573 cells were cultured in DMEM+F12+Glutamax (+Sodium Bicarbonate, +sodium pyruvate, ThermoFisher scientific, #10565) supplemented with 10% FBS (ThermoFisher scientific, #2060357) and 1% Antibiotic-Antimycotic (ThermoFisher scientific, #15240096). AsPC-1 cells were cultured in GIBCO RPMI-1640 (ThermoFisher scientific, catalog #61870-036 with Glutamax, No HEPES, No Na Pyruvate) supplemented with 10% FBS (ThermoFisher scientific, catalog #2060357) and 1× Penicillin-Streptomycin (ThermoFisher scientific, catalog #15140122, 10000 U/ml, 100×). SW620 cells were cultured in DMEM Glutamax (ThermoFisher scientific, catalog #10566016) supplemented with 10% FBS (ThermoFisher scientific, catalog #2060357) and 1× Penicillin-Streptomycin (ThermoFisher scientific, catalog #15140122, 10000 U/ml, 100×). For degradation assays, 384 well plates were used. Alamar blue was purchased from ThermoFisher scientific (A50101) and used according to manufacturer instructions. The Nano-Glo® HiBiT Lytic Detection System and Nano-Glo® HiBiT Blotting System were purchased from Promega (#N3050 and #N2410) and used according to manufacturer instructions.
HiBiT-tagged cell line generation. To create the SW1573 HiBiT-KRASG12C cell line, the nucleotide sequence encoding the 11 amino acid HiBiT tag from Promegal was appended to the N-terminus of the KRASG12C coding sequence. This synthesized DNA was cloned into a modified pcDNA3.1 vector under the control of the thymidine kinase (TK) promoter. This HiBiT-KRASG12C expressing plasmid was transfected into parental SW1573 cells and colonies were selected using 400 μg/mL zeocin. The resulting clonal lines were screened for expression of HiBiT-KRASG12C protein using Nano-Glo® HiBiT Blotting System. A luminescent band of the correct size for HiBiT-KRASG12C was detected in several clones. Clone E6 was selected for further studies.
HiBiT degradation assays (G12C and G12D). Either SW1573 HiBiT-KRasG12C or AsPC-1 HiBiT-KRasG12D cells were plated at 9000 or 15,000 cells/well in a 384 well plate (Corning #3770). Compounds of the present disclosure and positive controls were diluted in the appropriate cell media and applied to the plated cells resulting in a final concentration titration of 10 μM to 508 pM in 0.5% DMSO. Gambogic acid was used as a positive control for cytotoxicity and titrated from 10 μM to 78 nM. All assays were performed in triplicate. Cells were treated with compounds for 24 hours at 37° C. in an incubator containing 5% CO2. Following treatment, alamar blue was used to determine if any compounds led to a loss in cell viability after 24 hours. The 10× alamar blue reagent was added to a final concentration of 1× as recommended by the manufacturer and cells were returned to the incubator for 4 hours. Plates were then allowed to equilibrate to room temperature and fluorescence was measured using a Perkin-Elmer EnVision. After completion of the fluorescence read, the liquid from each well was removed and the cells were washed with PBS. The Nano-Glo® HiBiT detection reagent was prepared according to the manufacturer's instructions and added to each well after the PBS wash was removed. Following incubation at room temperature for 45 minutes, the luminescence was read using the ultra-sensitive luminescence aperture on the Envision instrument.
Data analysis. Fluorescence values from the alamar blue treatment were normalized to the DMSO-only control for each compound titration. […]
A general note: HiBiT is a short tag that completes a luciferase, so light tracks the accessible tagged protein.

A further assay addresses T2, AsPC-1 HiBiT-KRASG12D (Homo sapiens, UniProt P01116, G12D).
T2 construct: insert the HiBiT tag onto the N-terminus of one or more of the endogenous KRAS alleles; endogenous in cells; host or cells: AsPC-1 (ATCC CRL-1682), CRISPR-Cas9 knock-in clone, one tagged allele
Put plainly: HiBiT degradation assay (G12D), AsPC-1 HiBiT-KRASG12D cells. The note with it: 24 hours treatment; for Dmax: ASPC1, AsPC-1 HiBiT-KRASG12D cells, maximum degradation observed; for DC50: AsPC-1 HiBiT-KRASG12D cells, HiBiT luminescence. It counts as cell-based. Summed up: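 Steps: treat HiBiT-KRASG12D AsPC-1 cells with compound for 24 hours; add alamar blue to 1× and incubate 4 hours to assess viability; wash with PBS; add HiBiT lytic detection reagent, incubate 45 minutes at room temperature; read luminescence. Viability fluorescence is normalized to DMSO wells.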

T2 sequence (P01116 1-188 isoform P01116-2 G12D): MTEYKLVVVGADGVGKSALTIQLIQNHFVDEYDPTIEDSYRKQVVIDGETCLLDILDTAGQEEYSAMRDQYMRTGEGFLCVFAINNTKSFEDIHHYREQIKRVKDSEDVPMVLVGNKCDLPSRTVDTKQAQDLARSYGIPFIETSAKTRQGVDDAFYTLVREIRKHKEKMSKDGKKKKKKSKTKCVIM
T1 sequence (P01116 1-188 isoform P01116-2 G12C): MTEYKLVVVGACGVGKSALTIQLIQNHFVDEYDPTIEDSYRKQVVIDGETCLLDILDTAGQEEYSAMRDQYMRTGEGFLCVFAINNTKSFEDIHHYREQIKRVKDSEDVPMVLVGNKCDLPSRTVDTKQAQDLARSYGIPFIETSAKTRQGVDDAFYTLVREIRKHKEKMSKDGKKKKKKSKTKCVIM

The DC50 is the midpoint of the concentration-degradation curve. Lower therefore signals degradation at low concentration. The Dmax is the greatest extent of degradation seen. A low value points to shallow degradation. On to `CCc1cccc2cc(O)cc(-c3ncc4c(N5CC6CCC(C5)N6)nc(OC[C@@]56CCCN5[C@H](COCC(=O)N[C@H](C(=O)N5C[C@H](O)C[C@H]5C(=O)N[C@@H](C)c5ccc(-c7scnc7C)cc5)C(C)(C)C)CC6)nc4c3F)c12` [Compound 2, (2S,4R)-1-[(2S)-2-(2-{[(3S,7aS)-7a-{[(4-{3,8-diazabicyclo[3.2.1]octan-3-yl}-7-(8-ethyl-3-hydroxynaphthalen-1-yl)-8-fluoropyrido[4,3-d]pyrimidin-2-yl)oxy]methyl}-hexahydro-1H-pyrrolizin-3-yl]methoxy}acetamido)-3,3-dimethylbutanoyl]-4-hydroxy-N-[(1S)-1-[4-(4-methyl-1,3-thiazol-5-yl)phenyl]ethyl]pyrrolidine-2-carboxamide], for which, at SW1573 HiBiT-KRASG12C, the half-maximal degradation concentration (DC50) was in the range of 1 to 3 µM and the Dmax is 20 to 60%. At AsPC-1 HiBiT-KRASG12D, this compound gave a Dmax of 80 to 100% and a DC50 of less than 0.6 µM.
Regarding `Cc1ccc2[nH]ncc2c1-c1ncc2c(N3CC4CCC(C3)N4)nc(OCCN3CCC(COc4cc([C@H](C(=O)N5C[C@H](O)C[C@H]5C(=O)N[C@@H](C)c5ccc(-c6scnc6C)cc5)C(C)C)on4)CC3)nc2c1F` [Compound 3, (2S,4R)-1-[(2R)-2-[3-[[1-[2-[4-(3,8-diazabicyclo[3.2.1]octan-3-yl)-8-fluoro-7-(5-methyl-1H-indazol-4-yl)pyrido[4,3-d]pyrimidin-2-yl]oxyethyl]-4-piperidyl]methoxy]isoxazol-5-yl]-3-methyl-butanoyl]-4-hydroxy-N-[(1S)-1-[4-(4-methylthiazol-5-yl)phenyl]ethyl]pyrrolidine-2-carboxamide], the DC50 at SW1573 HiBiT-KRASG12C and at AsPC-1 HiBiT-KRASG12D was more than 3 µM each time.
With `CCc1cccc2cc(O)cc(-c3ncc4c(N5CC6CCC(C5)N6)nc(OC[C@@]56CCCN5[C@H](COC(=O)N5CCN(c7cc([C@@H](C(=O)N8C[C@H](O)C[C@H]8C(=O)N[C@@H](C)c8ccc(-c9scnc9C)cc8)C(C)C)on7)CC5)CC6)nc4c3F)c12` [Compound 4], the 50% degradation concentration (DC50) is more than 3 µM on SW1573 HiBiT-KRASG12C and less than 0.6 µM on AsPC-1 HiBiT-KRASG12D. This compound gave a Dmax on AsPC-1 HiBiT-KRASG12D of 20 to 60%.
As for `CCc1cccc2cc(O)cc(-c3ncc4c(N5CC6CCC(C5)N6)nc(OC[C@@]56CCCN5[C@H](COC(=O)N5CCN(c7cc([C@H](C(=O)N8C[C@H](O)C[C@H]8C(=O)N[C@@H](C)c8ccc(-c9scnc9C)cc8)C(C)C)on7)CC5)CC6)nc4c3F)c12` [Compound 5], on SW1573 HiBiT-KRASG12C, the DC50 is not above 0.6 µM and the Dmax was in the range of 60 to 80%. At AsPC-1 HiBiT-KRASG12D, this compound came in with a Dmax of 80 to 100% and a DC50 of less than 0.6 µM.
With `CCc1cccc2cc(O)cc(-c3ncc4c(N5CC6CCC(C5)N6)nc(OC[C@]56CCCN5[C@@H](COC(=O)N5CCN(c7cc([C@@H](C(=O)N8C[C@H](O)C[C@H]8C(=O)N[C@@H](C)c8ccc(-c9scnc9C)cc8)C(C)C)on7)CC5)CC6)nc4c3F)c12` [Compound 6], the 50% degradation concentration (DC50) on SW1573 HiBiT-KRASG12C is more than 3 µM. Moreover, on AsPC-1 HiBiT-KRASG12D, the maximal degradation (Dmax) is less than 20% and the DC50 lay in the range of 1 to 3 µM.
For `CCc1cccc2cc(O)cc(-c3ncc4c(N5CC6CCC(C5)N6)nc(OCCN5CCC(COc6cc([C@@H](C(=O)N7C[C@H](O)C[C@H]7C(=O)N[C@@H](C)c7ccc(-c8scnc8C)cc7)C(C)C)on6)CC5)nc4c3F)c12` [Compound 8, (2S,4R)-1-[(2S)-2-[3-[[1-[2-[4-(3,8-diazabicyclo[3.2.1]octan-3-yl)-7-(8-ethyl-3-hydroxy-1-naphthyl)-8-fluoro-pyrido[4,3-d]pyrimidin-2-yl]oxyethyl]-4-piperidyl]methoxy]isoxazol-5-yl]-3-methyl-butanoyl]-4-hydroxy-N-[(1S)-1-[4-(4-methylthiazol-5-yl)phenyl]ethyl]pyrrolidine-2-carboxamide] the same measures were more than 3 µM, 20 to 60% and 1 to 3 µM.
With `CCc1cccc2cc(O)cc(-c3ncc4c(N5CC6CCC(C5)N6)nc(OCCN5CCC(COC6(C(=O)N[C@H](C(=O)N7C[C@H](O)C[C@H]7C(=O)N[C@@H](C)c7ccc(-c8scnc8C)cc7)C(C)(C)C)CC6)CC5)nc4c3F)c12` [Compound 9, (2S,4R)-1-[(2S)-2-[[1-[[1-[2-[4-(3,8-diazabicyclo[3.2.1]octan-3-yl)-7-(8-ethyl-3-hydroxy-1-naphthyl)-8-fluoro-pyrido[4,3-d]pyrimidin-2-yl]oxyethyl]-4-piperidyl]methoxy]cyclopropanecarbonyl]amino]-3,3-dimethyl-butanoyl]-4-hydroxy-N-[(1S)-1-[4-(4-methylthiazol-5-yl)phenyl]ethyl]pyrrolidine-2-carboxamide], the half-maximal degradation concentration (DC50) on SW1573 HiBiT-KRASG12C is more than 3 µM; at AsPC-1 HiBiT-KRASG12D, less than 0.6 µM. In addition, the Dmax at AsPC-1 HiBiT-KRASG12D fell in the range of 80 to 100%.
As to `CCc1cccc2cc(O)cc(-c3ncc4c(N5CC6CCC(C5)N6)nc(OCCN5CCC(COCC(=O)N[C@H](C(=O)N6C[C@@H](O)C[C@H]6C(=O)N[C@@H](C)c6ccc(-c7scnc7C)cc6)C(C)(C)C)CC5)nc4c3F)c12` [Compound 10, (2S,4S)-1-[(2S)-2-[[2-[[1-[2-[4-(3,8-diazabicyclo[3.2.1]octan-3-yl)-7-(8-ethyl-3-hydroxy-1-naphthyl)-8-fluoro-pyrido[4,3-d]pyrimidin-2-yl]oxyethyl]-4-piperidyl]methoxy]acetyl]amino]-3,3-dimethyl-butanoyl]-4-hydroxy-N-[(1S)-1-[4-(4-methylthiazol-5-yl)phenyl]ethyl]pyrrolidine-2-carboxamide], the DC50 on SW1573 HiBiT-KRASG12C and at AsPC-1 HiBiT-KRASG12D was more than 3 µM throughout.
For the compound `CCc1cccc2cc(O)cc(-c3ncc4c(N5CC6CCC(C5)N6)nc(OCCN5CCC(OCCOCC(=O)N[C@H](C(=O)N6C[C@H](O)C[C@H]6C(=O)N[C@@H](C)c6ccc(-c7scnc7C)cc6)C(C)(C)C)CC5)nc4c3F)c12` [Compound 11], the 50% degradation concentration (DC50) at SW1573 HiBiT-KRASG12C was more than 3 µM. At AsPC-1 HiBiT-KRASG12D, the maximal degradation (Dmax) is 60 to 80% and the DC50 was 1 to 3 µM.
For `CCc1cccc2cc(O)cc(-c3ncc4c(N5CC6CCC(C5)N6)nc(OCCN5CCC(OCC(=O)N[C@H](C(=O)N6C[C@H](O)C[C@H]6C(=O)N[C@@H](C)c6ccc(-c7scnc7C)cc6)C(C)(C)C)CC5)nc4c3F)c12` [Compound 12, (2S,4R)-1-[(2S)-2-[[2-[[1-[2-[4-(3,8-diazabicyclo[3.2.1]octan-3-yl)-7-(8-ethyl-3-hydroxy-1-naphthyl)-8-fluoro-pyrido[4,3-d]pyrimidin-2-yl]oxyethyl]-4-piperidyl]oxy]acetyl]amino]-3,3-dimethyl-butanoyl]-4-hydroxy-N-[(1S)-1-[4-(4-methylthiazol-5-yl)phenyl]ethyl]pyrrolidine-2-carboxamide] the same measures were more than 3 µM, 80 to 100% and 1 to 3 µM.
As for `CCc1cccc2cc(O)cc(-c3ncc4c(N5CC6CCC(C5)N6)nc(OCCN5CCC(CCOCC(=O)N[C@H](C(=O)N6C[C@H](O)C[C@H]6C(=O)N[C@@H](C)c6ccc(-c7scnc7C)cc6)C(C)(C)C)CC5)nc4c3F)c12` [Compound 13], the DC50 at SW1573 HiBiT-KRASG12C was more than 3 µM. For the same compound, at AsPC-1 HiBiT-KRASG12D, the Dmax was in the range of 80 to 100% and the DC50 lay in the range of 0.6 to 1 µM.
